Measured values reported in the NIST ThermoML archive (doi:10.1021/acs.jced.8b00699).
Numbers after ± are expanded uncertainties.

Settings: Liquid, Closed cell (Static) method

SMILES | vapor or sublimation pressure (238.15 K) [kPa] | vapor or sublimation pressure (243.15 K) [kPa] | vapor or sublimation pressure (248.15 K) [kPa] | vapor or sublimation pressure (253.15 K) [kPa] | vapor or sublimation pressure (258.15 K) [kPa] | vapor or sublimation pressure (263.15 K) [kPa] | vapor or sublimation pressure (268.15 K) [kPa] | vapor or sublimation pressure (273.15 K) [kPa] | vapor or sublimation pressure (273.66 K) [kPa] | vapor or sublimation pressure (278.16 K) [kPa] | vapor or sublimation pressure (283.15 K) [kPa] | vapor or sublimation pressure (288.15 K) [kPa] | vapor or sublimation pressure (293.15 K) [kPa] | vapor or sublimation pressure (298.15 K) [kPa] | vapor or sublimation pressure (303.16 K) [kPa] | vapor or sublimation pressure (308.18 K) [kPa] | vapor or sublimation pressure (278.15 K) [kPa] | vapor or sublimation pressure (273.65 K) [kPa] | vapor or sublimation pressure (303.15 K) [kPa] | vapor or sublimation pressure (308.15 K) [kPa]
CCCCCCC#N [heptanenitrile] | 0.00048 ± 0.00011 | 0.00085 ± 0.00012 | 0.00146 ± 0.00013 | 0.00246 ± 0.00015 | 0.00408 ± 0.00019 | 0.00662 ± 0.00028 | 0.01055 ± 0.00042 | 0.01647 ± 0.00057 | 0.01723 ± 0.00058 | 0.02527 ± 0.00071 | 0.03801 ± 0.00091 | 0.05634 ± 0.0012 | 0.0819 ± 0.0017 | 0.1175 ± 0.0023 | 0.1649 ± 0.0027 | 0.2302 ± 0.0035 | – | – | – | –
CCCCCCCCC#N [nonanenitrile] | – | – | – | – | – | – | – | – | 0.00148 ± 0.00013 | – | 0.0037 ± 0.00018 | 0.00585 ± 0.00025 | 0.00907 ± 0.00037 | 0.01387 ± 0.00053 | 0.02079 ± 0.00064 | 0.03074 ± 0.00079 | 0.00231 ± 0.00015 | – | – | –
CCCCCCCC#N [octanenitrile] | 0.00012 ± 0.00011 | 0.00021 ± 0.00011 | 0.00037 ± 0.00012 | 0.00064 ± 0.00012 | 0.00108 ± 0.00012 | 0.0018 ± 0.00014 | 0.00295 ± 0.00016 | 0.00476 ± 0.00021 | – | – | 0.01175 ± 0.00047 | 0.01796 ± 0.00059 | 0.02693 ± 0.00073 | 0.0398 ± 0.00094 | – | – | 0.00758 ± 0.00031 | 0.00502 ± 0.00022 | 0.05793 ± 0.0013 | 0.08314 ± 0.0017
